Experiments:
Assay in all cases: biochemical
Format in all cases: binding
panel of 442 kinases [1] = target: T1, panel of 442 kinases (Homo sapiens, UniProt P54764); settings: EPHA4; for remaining activity at 1 µM: read-out: % of control at 1 µM
T1 construct: purchased Ambit Biosciences (scanMAXX KINOMEscan)

panel of 442 kinases [2] = target: T2, panel of 442 kinases (Homo sapiens, UniProt Q6ZN16); settings: kinase MAP3K15; for remaining activity at 1 µM: read-out: % of control at 1 µM
T2 construct: purchased Ambit Biosciences (scanMAXX KINOMEscan)
T2 sequence (Q6ZN16 1-1313): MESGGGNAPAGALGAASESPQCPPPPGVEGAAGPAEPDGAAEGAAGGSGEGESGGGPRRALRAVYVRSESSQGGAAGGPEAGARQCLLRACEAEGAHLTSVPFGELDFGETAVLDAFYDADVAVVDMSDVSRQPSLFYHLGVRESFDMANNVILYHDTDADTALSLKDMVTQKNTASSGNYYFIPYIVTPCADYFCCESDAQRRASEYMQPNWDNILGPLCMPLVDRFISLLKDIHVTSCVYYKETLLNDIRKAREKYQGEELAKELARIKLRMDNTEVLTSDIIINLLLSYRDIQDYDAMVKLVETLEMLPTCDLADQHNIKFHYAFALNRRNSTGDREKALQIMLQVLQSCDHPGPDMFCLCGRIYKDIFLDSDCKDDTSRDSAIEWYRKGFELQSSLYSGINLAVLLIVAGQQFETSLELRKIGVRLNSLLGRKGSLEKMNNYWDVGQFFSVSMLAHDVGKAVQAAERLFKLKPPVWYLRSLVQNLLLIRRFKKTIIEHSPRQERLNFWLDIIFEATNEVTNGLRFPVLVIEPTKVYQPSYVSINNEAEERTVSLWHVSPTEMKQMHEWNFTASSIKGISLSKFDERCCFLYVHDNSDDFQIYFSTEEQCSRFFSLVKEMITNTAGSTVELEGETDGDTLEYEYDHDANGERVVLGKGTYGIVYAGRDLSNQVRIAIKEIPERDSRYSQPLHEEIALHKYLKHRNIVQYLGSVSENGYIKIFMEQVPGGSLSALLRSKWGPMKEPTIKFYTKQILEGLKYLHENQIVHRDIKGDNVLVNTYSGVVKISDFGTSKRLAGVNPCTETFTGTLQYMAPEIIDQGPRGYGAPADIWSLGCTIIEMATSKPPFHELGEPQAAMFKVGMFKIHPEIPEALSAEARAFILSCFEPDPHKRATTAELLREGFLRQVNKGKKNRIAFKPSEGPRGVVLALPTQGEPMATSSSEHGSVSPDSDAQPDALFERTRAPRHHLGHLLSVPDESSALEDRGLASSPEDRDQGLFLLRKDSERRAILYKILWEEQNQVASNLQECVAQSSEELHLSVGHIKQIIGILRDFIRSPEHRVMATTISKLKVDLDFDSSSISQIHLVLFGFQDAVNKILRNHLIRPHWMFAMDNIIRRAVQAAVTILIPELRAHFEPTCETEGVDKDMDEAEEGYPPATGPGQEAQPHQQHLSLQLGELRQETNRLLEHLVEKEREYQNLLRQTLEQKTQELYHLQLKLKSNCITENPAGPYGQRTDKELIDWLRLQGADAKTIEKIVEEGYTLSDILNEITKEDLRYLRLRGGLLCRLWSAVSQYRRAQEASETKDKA

panel of 442 kinases [3] = target: T3, panel of 442 kinases (Homo sapiens, UniProt Q8IVW4); settings: CDKL3; for remaining activity at 1 µM: read-out: % of control at 1 µM
T3 construct: purchased Ambit Biosciences (scanMAXX KINOMEscan)
T3 sequence (Q8IVW4 whole entry): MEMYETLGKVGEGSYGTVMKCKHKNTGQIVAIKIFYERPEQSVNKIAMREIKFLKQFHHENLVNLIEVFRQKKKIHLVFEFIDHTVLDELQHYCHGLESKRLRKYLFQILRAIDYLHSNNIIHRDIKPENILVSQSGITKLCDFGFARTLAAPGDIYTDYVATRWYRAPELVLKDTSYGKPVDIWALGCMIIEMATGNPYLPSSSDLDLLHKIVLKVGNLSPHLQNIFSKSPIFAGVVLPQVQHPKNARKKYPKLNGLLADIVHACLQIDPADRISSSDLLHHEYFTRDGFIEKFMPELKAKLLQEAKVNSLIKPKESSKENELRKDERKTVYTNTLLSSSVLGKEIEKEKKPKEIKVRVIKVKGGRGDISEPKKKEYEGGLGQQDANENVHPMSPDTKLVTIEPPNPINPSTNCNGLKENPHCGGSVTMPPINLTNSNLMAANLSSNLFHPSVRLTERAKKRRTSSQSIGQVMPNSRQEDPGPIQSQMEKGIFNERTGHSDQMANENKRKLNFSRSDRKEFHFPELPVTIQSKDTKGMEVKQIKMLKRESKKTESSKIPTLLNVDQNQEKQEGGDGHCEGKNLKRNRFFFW

panel of 442 kinases [4] = target: T4, panel of 442 kinases (Homo sapiens, UniProt Q92630); settings: DYRK2; for remaining activity at 1 µM: read-out: % of control at 1 µM
T4 construct: purchased Ambit Biosciences (scanMAXX KINOMEscan)
T4 sequence (Q92630 1-601): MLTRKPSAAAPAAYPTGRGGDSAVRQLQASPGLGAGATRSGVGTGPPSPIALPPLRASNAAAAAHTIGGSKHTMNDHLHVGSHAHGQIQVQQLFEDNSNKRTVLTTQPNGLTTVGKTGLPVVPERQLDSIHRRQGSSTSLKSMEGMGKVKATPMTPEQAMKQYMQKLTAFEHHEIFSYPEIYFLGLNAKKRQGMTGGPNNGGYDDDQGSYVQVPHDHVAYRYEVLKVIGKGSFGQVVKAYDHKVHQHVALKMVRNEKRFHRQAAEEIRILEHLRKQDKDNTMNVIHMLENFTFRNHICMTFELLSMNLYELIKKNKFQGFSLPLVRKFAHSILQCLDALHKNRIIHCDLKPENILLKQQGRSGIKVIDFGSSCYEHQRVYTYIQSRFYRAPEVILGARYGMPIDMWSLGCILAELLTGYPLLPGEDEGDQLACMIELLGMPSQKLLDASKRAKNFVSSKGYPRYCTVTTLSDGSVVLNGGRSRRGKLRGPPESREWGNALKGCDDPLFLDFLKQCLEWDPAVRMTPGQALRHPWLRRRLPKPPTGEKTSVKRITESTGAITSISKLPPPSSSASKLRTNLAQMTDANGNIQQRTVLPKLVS

panel of 442 kinases [5] = target: T5, panel of 442 kinases (Homo sapiens, UniProt Q96D53); settings: ADCK4; for remaining activity at 1 µM: read-out: % of control at 1 µM
T5 construct: purchased Ambit Biosciences (scanMAXX KINOMEscan)
T5 sequence (Q96D53 1-544): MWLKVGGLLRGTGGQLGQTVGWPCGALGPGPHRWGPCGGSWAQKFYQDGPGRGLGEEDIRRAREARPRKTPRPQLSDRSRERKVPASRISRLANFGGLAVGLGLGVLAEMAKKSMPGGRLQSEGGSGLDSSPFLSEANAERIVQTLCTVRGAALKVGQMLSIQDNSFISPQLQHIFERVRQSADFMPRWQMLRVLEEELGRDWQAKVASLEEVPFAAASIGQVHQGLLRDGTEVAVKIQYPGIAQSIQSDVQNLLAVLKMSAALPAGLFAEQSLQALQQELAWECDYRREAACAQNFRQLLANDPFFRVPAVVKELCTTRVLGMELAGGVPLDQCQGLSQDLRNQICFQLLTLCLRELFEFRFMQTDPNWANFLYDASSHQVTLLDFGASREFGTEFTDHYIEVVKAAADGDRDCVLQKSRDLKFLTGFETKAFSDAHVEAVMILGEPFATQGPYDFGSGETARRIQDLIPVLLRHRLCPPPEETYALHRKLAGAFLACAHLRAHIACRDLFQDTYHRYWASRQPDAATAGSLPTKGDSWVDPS

[6] = 10 µM, read-out: % of control at 10 µM

T1 sequence (P54764 20-986): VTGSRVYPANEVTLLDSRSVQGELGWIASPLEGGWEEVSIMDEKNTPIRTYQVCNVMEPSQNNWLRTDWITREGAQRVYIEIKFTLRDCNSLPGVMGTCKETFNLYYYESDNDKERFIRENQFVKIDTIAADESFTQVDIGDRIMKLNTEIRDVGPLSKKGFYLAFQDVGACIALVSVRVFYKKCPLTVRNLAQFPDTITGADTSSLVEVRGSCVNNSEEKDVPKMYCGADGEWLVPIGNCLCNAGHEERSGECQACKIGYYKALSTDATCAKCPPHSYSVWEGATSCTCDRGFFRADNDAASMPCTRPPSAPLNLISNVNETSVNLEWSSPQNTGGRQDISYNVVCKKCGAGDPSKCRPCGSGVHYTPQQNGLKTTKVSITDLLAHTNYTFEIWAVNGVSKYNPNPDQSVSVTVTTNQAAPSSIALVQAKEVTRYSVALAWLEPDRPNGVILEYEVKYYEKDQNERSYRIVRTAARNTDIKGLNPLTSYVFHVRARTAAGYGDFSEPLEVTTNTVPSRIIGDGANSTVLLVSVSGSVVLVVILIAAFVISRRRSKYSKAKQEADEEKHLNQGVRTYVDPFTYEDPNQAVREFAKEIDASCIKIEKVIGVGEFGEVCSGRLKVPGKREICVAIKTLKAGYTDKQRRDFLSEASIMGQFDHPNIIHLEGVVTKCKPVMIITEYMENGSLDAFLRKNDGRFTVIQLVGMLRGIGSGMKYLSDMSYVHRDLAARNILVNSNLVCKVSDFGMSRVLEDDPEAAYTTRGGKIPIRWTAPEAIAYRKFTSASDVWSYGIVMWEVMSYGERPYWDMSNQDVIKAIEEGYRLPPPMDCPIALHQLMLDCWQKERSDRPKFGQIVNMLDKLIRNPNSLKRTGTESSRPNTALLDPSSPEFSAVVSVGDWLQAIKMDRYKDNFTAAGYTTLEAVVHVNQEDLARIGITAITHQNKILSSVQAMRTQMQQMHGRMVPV

| SMILES | remaining activity at 1 µM (panel of 442 kinases [1]) | remaining activity at 10 µM (panel of 442 kinases [1]; [6]) | remaining activity at 1 µM (panel of 442 kinases [2]) | remaining activity at 10 µM (panel of 442 kinases [2]; [6]) | remaining activity at 1 µM (panel of 442 kinases [3]) | remaining activity at 10 µM (panel of 442 kinases [3]; [6]) | remaining activity at 1 µM (panel of 442 kinases [4]) | remaining activity at 10 µM (panel of 442 kinases [4]; [6]) | remaining activity at 1 µM (panel of 442 kinases [5]) | remaining activity at 10 µM (panel of 442 kinases [5]; [6]) |
| --- | --- | --- | --- | --- | --- | --- | --- | --- | --- | --- |
| Nc1cc(C(F)(F)F)c(-c2cc(N3CCOCC3)nc(N3CCOCC3)n2)cn1 [Buparlisib] | 98% | 100% | 97% | 100% | 92% | 100% | 80% | 100% | 100% | 100% |
| Cn1c(=O)n(-c2ccc(C(C)(C)C#N)cc2)c2c3cc(-c4cnc5ccccc5c4)ccc3ncc21 [Dactolisib, 2-methyl-2-[4-(3-methyl-2-oxo-8-quinolin-3-yl-2,3-dihydroimidazo[4,5-c]quinolin-1-yl)-phenyl] propionitrile] | 97% |  | 100% |  | 57% |  | 67% |  |  |  |
| COc1ncc(-c2ccc3nccc(-c4ccnnc4)c3c2)cc1NS(=O)(=O)c1ccc(F)cc1F [Omipalisib] | 100% |  | 90% |  | 100% |  | 88% |  | 75% |  |
| FC(F)c1nc2ccccc2n1-c1nc(N2CCOCC2)nc(N2CCOCC2)n1 [ZSTK474, 2-(difluoromethyl)-1-[4,6-di(4-morpholinyl)-1,3,5-triazin-2-yl]-1H-benzimidazole] | 96% |  | 100% |  | 100% |  | 78% |  | 74% |  |

From article PMC5564600 (Oncotarget, 2017)
